Assay [1] deals with mucocutaneous Herpes Simplex (Type I and Type II) eruptions. Briefly: Clinical study: iontophoretic application of antiviral agent to herpes lesions (Stage 1 treatment). Conditions: for No response (count, Stage 1 treatment results) / Some response (count, Stage 1 treatment results): iontophoretic 10-15 minute application to lesion, 0.2 ma-0.6 ma, evaluated in 24 hours; for Major response (count, Stage 1 treatment results): iontophoretic 10-15 minute application, major response = resolution of pain in <6 hours and lesion crusted and healing within 24 hours. In kind it is in vivo, human. The source says: The inventor has conducted a clinical study using a prototype iontophoretic device in accordance with the present invention for the treatment of cold sores. The clinical response was promising. A second independent, qualified investigator, a board-certified Urologist, conducted a study using the present apparatus and method for treating male genital herpes lesions with encouraging results. Table 1 summarizes data (discussed below) supporting the claim to unexpected clinical benefits treating disease with this novel method. The method and medicament application device when used together for treating these common, embarrassing, and previously not easily-treatable ailments provide surprising advantages.
The embodiment of the device shown in FIG. 1 and described hereinabove is an improvement over the prototype used in the clinical study, which was a larger unit, not user-friendly, which required physically connecting wires to the patient's body which created anxiety, and could not be used without attending personnel. Notwithstanding design, the apparatus used in the clinical study summarized in Table 1 employed electronics similar to the apparatus described herein and was used to optimize the clinical performance of the embodiment 12 of the device described herein.
(§1) The clinical studies included patient volunteers with full informed consent who suffered from recurrent cold sores. […] The treatment incorporated an electrode saturated with Acyclovir® ointment (ZOVIRAX®) or IUDR (STOXIL®) ophthalmic drops as supplied by the manufacturer. Thus mounted Anodic electrode of the prototype system was used for a 10-15 minute application directly to the lesion with the average current setting of 0.2 ma-0.6 ma which was well tolerated by all patients.
(§2) The lesion was evaluated in 24 hours. In 92% of the iontophoretically treated cases (>70 lesions treated) a major response was noted. A major response was categorized by resolution of pain in <6 hours and lesion crusted and healing within 24 hours. The normal course of cold sores involves an average period of 10-12 days before resolution and healing occurs. The present apparatus and clinical method for treatment of mucocutaneous Herpes Simplex (Type I and Type II) eruptions presented herein have been described and performed with excellent results. This novel user-friendly apparatus in combination with the disclosed clinical treatment method presents a very effective new treatment for Herpes Simplex eruptions.

The test system of the next assay is herpes lesions. Put plainly: Control group: patients with concurrent herpes lesions, one treated iontophoretically, the other by repeated topical application of the same agent. Type of assay: in vivo, human. The conditions noted are these: for Major Response (count), Control lesion / No Response (count), Control lesion / Some Response (count), Control lesion: repeated unassisted topical application of the same antiviral agent; for Major Response (count), Treated lesion / No Response (count), Treated lesion / Some Response (count), Treated lesion: iontophoretically treated lesion, single 10-15 minute treatment; for Outcome of unassisted topically treated lesions: repeated topical application, compared with resolution in 24 hours; for Outcome of iontophoretically treated lesions: single 10-15 minute iontophoretic treatment, all treated lesions. As to the method: The study included a control situation wherein seven patients were found who had simultaneous concurrent herpes lesions at separate locations on their bodies. In each case, one lesion was treated with iontophoretic application of antiviral agent (Acyclovir® or IUDR) and the other lesion was treated in the standard method employed in the prior art comprising repeated topical application of the same antiviral agent.
as §1, §2

On to `Nc1nc2c(ncn2COCCO)c(=O)[nH]1` [ACYCLOVIR ®, 2-amino-1,9-dihydro-9-[(2-hydroxyethoxy)methyl]-6H-purin-6-one], for which, in assay [1], the “No response (count, Stage 1 treatment results)” value came to 1; the “Some response (count, Stage 1 treatment results)” value is 3; the “Major response (count, Stage 1 treatment results)” value was 42. In the assay with herpes lesions, the “Major Response (count), Control lesion” value is 0; the “No Response (count), Control lesion” value is recorded as 1; the “Some Response (count), Control lesion” value is 0; the “Major Response (count), Treated lesion” value came to 1. In the assay on herpes lesions, the “No Response (count), Treated lesion” value was 0; the “Some Response (count), Treated lesion” value was found to be 0; the “Outcome of unassisted topically treated lesions” value is listed as “none of the unassisted topically treated lesions demonstrated a similar response”; the “Outcome of iontophoretically treated lesions” value is on record as “resolution in 24 hours”.
`O=c1[nH]c(=O)n([C@H]2C[C@H](O)[C@@H](CO)O2)cc1I` [IUDR, 5-iodo-2 deoxyuridine]: in assay [1], the “No response (count, Stage 1 treatment results)” value is recorded as 1; the “Some response (count, Stage 1 treatment results)” value amounted to 1; the “Major response (count, Stage 1 treatment results)” value was found to be 26. Also, in the assay with herpes lesions, the “Major Response (count), Control lesion” value is reported as 0; the “No Response (count), Control lesion” value is on record as 5; the “Some Response (count), Control lesion” value is 2; the “Major Response (count), Treated lesion” value worked out at 7. Also, in the assay on herpes lesions, the “No Response (count), Treated lesion” value is given as 0; the “Some Response (count), Treated lesion” value stood at 0; the “Outcome of unassisted topically treated lesions” value is listed as “none of the unassisted topically treated lesions demonstrated a similar response”; the “Outcome of iontophoretically treated lesions” value was “resolution in 24 hours”.

For the origin of these results see US6385487B1, “Methods for electrokinetic delivery of medicaments” (Biophoretic Therapeutic Systems, LLC, priority 1996, dated 2002).
